According to patent US4647563A, “Heterocyclic compounds” (Boehringer Ingelheim KG, priority 1978, dated 1987):
Where two headings read alike, the source gives them in different places.

Legend:
[1] = test system: acetylcholine bronchospasm; assay: Bronchospasmolysis: influence on acetylcholine bronchospasm in guinea pigs under urethane anaesthesia, body plethysmography; assay type: in vivo; conditions: Cavia porcellus
Experimental: 1. Bronchospasmolysis The activity was tested on guinea pigs under urethane anaesthesia. Body plethysmography was used to determine the influence on acetylcholine bronchospasm after intravenous and oral application.

[2] = Acute toxicity, LD50 in mice; conditions: mouse, in vivo
Uterine relaxation = Uterine relaxation on anesthetized rats; assay type: in vivo; conditions: Rattus norvegicus, iv, read-out: Uterine relaxation ED50 i.v.
Experimental: (§1) Uterine relaxation was investigated on anesthetized rats. The intravenous ED50 of uterine relaxation was determined in ug/kg (50% of the tested animals react) and the (undesirable) increase in heart rate at the ED50 value was also determined. The comparison compound was fenoterol.

heart rate = assay: Increase in heart rate at the ED50 of uterine relaxation on anesthetized rats; assay type: in vivo
Experimental: as §1

[3] = intravenous, read-out: Broncholysis ED50 intravenous
[4] = oral, read-out: Broncholysis ED50 oral
[5] = anesthetized rats, 50% of the tested animals react

## CC(C)(C)NCC(O)c1ccc(O)c(CO)c1 (stereo not drawn) [Salbutamol, reference compound]
[1]; [3]
  ED50: 9.2 µg/kg
[1]; [4]
  ED50: 1000 µg/kg

## CC(C)(CCn1cnc2ccccc21)NCC(O)c1ccc(O)c2c1OCC(=O)N2 (stereo not drawn) [Table III, 24th compound]
[1]; [4]
  ED50: 5.4 µg/kg

## CC(C)(CCn1cnc2ccccc21)NCC(O)c1ccc(O)cc1F (stereo not drawn) [Example 6, 1-(2-Fluoro-4-hydroxy-phenyl)-2-[4-(1-benzimidazolyl)-2-methyl-2-butylamino]-ethanol]
[2]; iv
  LD50: 29000 µg/kg
[2]; po
  LD50: 300000 µg/kg
[1]; [3]
  ED50: 3.6 µg/kg
[1]; [4]
  ED50: 7 µg/kg

## CC(Cc1ccc(O)cc1)NCC(O)c1cc(O)cc(O)c1 (stereo not drawn) [Fenoterol, reference compound]
Uterine relaxation
  ED50: 0.45 µg/kg
Heart rate; at the ED50 of uterine relaxation, fenoterol = 1, rats
  Increase in heart rate in comparison with fenoterol: 1
Heart rate; at the ED50 of uterine relaxation, i.v., anesthetized rats
  Increase in heart rate (beats per min.): 36 beats per min.

## CC(C)(CCn1cnc2ccccc21)NCC(O)c1ccc(O)cc1Cl (stereo not drawn) [Table II, 21st compound]
[1]; [3]
  ED50: 7.6 µg/kg
[1]; [4]
  ED50: 190 µg/kg

## Cc1c(C(O)CNC(C)(C)CCn2nnc3ccccc32)ccc(O)c1O (stereo not drawn) [Table II, 15th compound]
Uterine relaxation; [5]
  ED50: 0.44 µg/kg
Heart rate; rat, in vivo
  Increase in heart rate in comparison with fenoterol: 2/3
Heart rate; rat, in vivo, iv
  Increase in heart rate (beats per min.): 23 beats per min.

## CC(C)(CCn1cnc2ccccc21)NCC(O)c1ccc(O)c(CO)c1 (stereo not drawn) [Table III, 16th compound]
[1]; [3]
  ED50: 1.2 µg/kg
[1]; [4]
  ED50: 7.6 µg/kg

## CC(C)(CCCn1cnc2ccccc21)NCC(O)c1ccc(O)c(NS(C)(=O)=O)c1 (stereo not drawn) [Table II, 24th compound]
Uterine relaxation; [5]
  ED50: 0.5 µg/kg
Heart rate; rat, in vivo
  Increase in heart rate in comparison with fenoterol: 1/2
Heart rate; rat, in vivo, iv
  Increase in heart rate (beats per min.): 18 beats per min.

## CC(=O)Nc1cc(C(O)CNC(C)(C)CCn2cnc3ccccc32)ccc1O (stereo not drawn) [Table II, 16th compound]
[1]; [3]
  ED50: 1.8 µg/kg
[1]; [4]
  ED50: 66 µg/kg

## CC(C)(CCn1cnc2ccccc21)NCC(O)c1ccc(O)c(NC(N)=O)c1 (stereo not drawn) [Table III, 15th compound]
[1]; [3]
  ED50: 0.9 µg/kg
[1]; [4]
  ED50: 14 µg/kg

## CC(C)(CCn1cnc2ccccc21)NCC(O)c1ccc(O)cc1 (stereo not drawn) [Table III 10th compound]
Uterine relaxation; [5]
  ED50: 0.82 µg/kg
Heart rate; rat, in vivo
  Increase in heart rate in comparison with fenoterol: 1/2
Heart rate; rat, in vivo, iv
  Increase in heart rate (beats per min.): 19 beats per min.
